Values after ≈ are worked out from the molar mass of the structure shown.
What was measured:
Assay type in all cases: functional
[1] = test system: PC-3; test: Growth inhibition of human PC3 cells after 48 hrs by sulforhodamine B assay; settings: PC-3, 48 h
[2] = test system: K562; test: Growth inhibition of human K562 cells after 48 hrs by sulforhodamine B assay; settings: K562, 48 h
[3] = test system: NCI/ADR-RES; test: Growth inhibition of human NCI-ADR-RES cells after 48 hrs by sulforhodamine B assay
[4] = test system: MCF7; test: Growth inhibition of human MCF7 cells after 48 hrs by sulforhodamine B assay; settings: MCF7, 48 h
[5] = test system: NCI-H460; test: Growth inhibition of human NCI-H460 cells after 48 hrs by sulforhodamine B assay; settings: NCI-H460, 48 h
[6] = test system: UACC-62; test: Growth inhibition of human UACC62 cells after 48 hrs by sulforhodamine B assay; settings: UACC-62, 48 h
[7] = test system: HT-29; test: Growth inhibition of human HT-29 cells after 48 hrs by sulforhodamine B assay; settings: HT-29, 48 h
[8] = test system: OVCAR-3; test: Growth inhibition of human OVCAR-3 cells after 48 hrs by sulforhodamine B assay; settings: OVCAR-3, 48 h
[9] = test system: 786-0; test: Growth inhibition of human 786-0 cells after 48 hrs by sulforhodamine B assay; settings: 786-0, 48 h

SMILES	GI50 [1] [µg/mL]	TGI [1] [µg/mL]	GI50 [2] [µg/mL]	TGI [2] [µg/mL]	GI50 [3] [µg/mL]	TGI [3] [µg/mL]	GI50 [4] [µg/mL]	TGI [4] [µg/mL]	GI50 [5] [µg/mL]	TGI [5] [µg/mL]	GI50 [6] [µg/mL]	TGI [6] [µg/mL]	GI50 [7] [µg/mL]	TGI [7] [µg/mL]	GI50 [8] [µg/mL]	TGI [8] [µg/mL]	GI50 [9] [µg/mL]	TGI [9] [µg/mL]
CCN(CC)Cc1cc2c(o1)C[C@H]1[C@H]3[C@@H](OC(=O)[C@H]23)[C@H](O)[C@H]2C(C)(C)CCC[C@]12C	0.28 (≈ 0.674 µM)	0.58 (≈ 1.4 µM)	< 0.25	3.01 (≈ 7.24 µM)	3.12 (≈ 7.51 µM)	8.15 (≈ 19.6 µM)	0.27 (≈ 0.65 µM)	1.44 (≈ 3.47 µM)	1.35 (≈ 3.25 µM)	3.23 (≈ 7.77 µM)	0.57 (≈ 1.37 µM)	2.55 (≈ 6.14 µM)	0.32 (≈ 0.77 µM)	1.14 (≈ 2.74 µM)	2.5 (≈ 6.02 µM)	5.62 (≈ 13.5 µM)	2.23 (≈ 5.37 µM)	2.49 (≈ 5.99 µM)
CCCN(CCC)Cc1cc2c(o1)C[C@H]1[C@H]3[C@@H](OC(=O)[C@H]23)[C@H](O)[C@H]2C(C)(C)CCC[C@]12C	2.4 (≈ 5.41 µM)	3.83 (≈ 8.63 µM)	2.77 (≈ 6.24 µM)	8.87 (≈ 20 µM)	2.64 (≈ 5.95 µM)	5.53 (≈ 12.5 µM)	2.5 (≈ 5.64 µM)	5.31 (≈ 12 µM)	2.96 (≈ 6.67 µM)	6.01 (≈ 13.5 µM)	2.76 (≈ 6.22 µM)	4.96 (≈ 11.2 µM)	2.33 (≈ 5.25 µM)	3.35 (≈ 7.55 µM)	2.36 (≈ 5.32 µM)	3.9 (≈ 8.79 µM)	2.5 (≈ 5.64 µM)	3.72 (≈ 8.39 µM)
CC(C)CN(Cc1cc2c(o1)C[C@H]1[C@H]3[C@@H](OC(=O)[C@H]23)[C@H](O)[C@H]2C(C)(C)CCC[C@]12C)CC(C)C	0.98 (≈ 2.08 µM)	4.06 (≈ 8.61 µM)	5.06 (≈ 10.7 µM)	86.1 (≈ 182 µM)	0.39 (≈ 0.827 µM)	5.39 (≈ 11.4 µM)	0.69 (≈ 1.46 µM)	7.4 (≈ 15.7 µM)	0.29 (≈ 0.615 µM)	3.2 (≈ 6.78 µM)	0.86 (≈ 1.82 µM)	5.27 (≈ 11.2 µM)	0.67 (≈ 1.42 µM)	6.91 (≈ 14.6 µM)	0.28 (≈ 0.594 µM)	1.86 (≈ 3.94 µM)	2.5 (≈ 5.3 µM)	16.6 (≈ 35.3 µM)
CC1(C)CCC[C@]2(C)[C@H]3Cc4oc(CN5CCCC5)cc4[C@H]4C(=O)O[C@@H]([C@H](O)[C@@H]12)[C@@H]43	0.34 (≈ 0.822 µM)	1.69 (≈ 4.09 µM)	1.58 (≈ 3.82 µM)	23.2 (≈ 56.1 µM)	2.5 (≈ 6.05 µM)	6.18 (≈ 14.9 µM)	1.81 (≈ 4.38 µM)	3.86 (≈ 9.33 µM)	2.5 (≈ 6.05 µM)	4.94 (≈ 11.9 µM)	0.78 (≈ 1.89 µM)	3.05 (≈ 7.38 µM)	0.3 (≈ 0.725 µM)	1.61 (≈ 3.89 µM)	2.5 (≈ 6.05 µM)	5.28 (≈ 12.8 µM)	0.76 (≈ 1.84 µM)	3.98 (≈ 9.62 µM)
CC1(C)CCC[C@]2(C)[C@H]3Cc4oc(CN5CCCCC5)cc4[C@H]4C(=O)O[C@@H]([C@H](O)[C@@H]12)[C@@H]43	0.27 (≈ 0.631 µM)	0.78 (≈ 1.82 µM)	0.32 (≈ 0.748 µM)	4.55 (≈ 10.6 µM)	2.65 (≈ 6.2 µM)	7.1 (≈ 16.6 µM)	0.88 (≈ 2.06 µM)	3.82 (≈ 8.93 µM)	2.5 (≈ 5.85 µM)	4.64 (≈ 10.9 µM)	2.44 (≈ 5.71 µM)	3.96 (≈ 9.26 µM)	1.76 (≈ 4.12 µM)	2.23 (≈ 5.22 µM)	2.37 (≈ 5.54 µM)	4.36 (≈ 10.2 µM)	2.31 (≈ 5.4 µM)	4.11 (≈ 9.61 µM)
CC1(C)CCC[C@]2(C)[C@H]3Cc4oc(CN5CCOCC5)cc4[C@H]4C(=O)O[C@@H]([C@H](O)[C@@H]12)[C@@H]43	0.27 (≈ 0.629 µM)	1.27 (≈ 2.96 µM)	2.39 (≈ 5.56 µM)	8.24 (≈ 19.2 µM)	2.73 (≈ 6.36 µM)	6.34 (≈ 14.8 µM)	2.45 (≈ 5.7 µM)	4.77 (≈ 11.1 µM)	2.69 (≈ 6.26 µM)	4.05 (≈ 9.43 µM)	2.5 (≈ 5.82 µM)	4.36 (≈ 10.1 µM)	1.68 (≈ 3.91 µM)	3.68 (≈ 8.57 µM)	2.6 (≈ 6.05 µM)	8.05 (≈ 18.7 µM)	2.37 (≈ 5.52 µM)	4.04 (≈ 9.41 µM)
CC1(C)CCC[C@@]2(C)C1[C@@H](O)[C@@H]1OC(=O)[C@@H]3c4ccoc4C[C@H]2[C@@H]13 (some centres undefined)	30.8 (≈ 93.3 µM)	91.9 (≈ 278 µM)	2.08 (≈ 6.29 µM)	> 250	0.35 (≈ 1.06 µM)	> 250	27.7 (≈ 83.7 µM)	214 (≈ 647 µM)	2.53 (≈ 7.66 µM)	12.4 (≈ 37.7 µM)	5.19 (≈ 15.7 µM)	30 (≈ 90.8 µM)	52.5 (≈ 159 µM)	> 250	0.52 (≈ 1.57 µM)	8.82 (≈ 26.7 µM)	8.87 (≈ 26.8 µM)	37.3 (≈ 113 µM)
COc1cccc2c1C(=O)c1c(O)c3c(c(O)c1C2=O)C[C@@](O)(C(=O)CO)C[C@@H]3O[C@H]1C[C@H](N)[C@H](O)[C@H](C)O1 [DOXORUBICIN]	0.28 (≈ 0.515 µM)	5.85 (≈ 10.8 µM)	0.4 (≈ 0.736 µM)	20.5 (≈ 37.7 µM)	0.33 (≈ 0.607 µM)	6.6 (≈ 12.1 µM)	0.03 (≈ 0.0552 µM)	3.3 (≈ 6.07 µM)	< 0.03	0.9 (≈ 1.66 µM)	0.09 (≈ 0.166 µM)	0.33 (≈ 0.607 µM)	0.07 (≈ 0.129 µM)	3.9 (≈ 7.18 µM)	0.08 (≈ 0.147 µM)	2.95 (≈ 5.43 µM)	0.04 (≈ 0.0736 µM)	2.67 (≈ 4.91 µM)
